Earlier results in PMC8621857, “Structural Insights into the Azole Resistance of the Candida albicans Darlington Strain Using Saccharomyces cerevisiae Lanosterol 14α-Demethylase as a Surrogate” (Journal of Fungi, 2021).

Tested on: CaLDM I471T
Parameters: method as in PMID 20625155
Settings: detergent solubilized CaLDM I471T single-mutation; cited from earlier work

## CC(C)=CCC[C@@H](C)[C@H]1CC[C@@]2(C)C3=C(CC[C@]12C)[C@@]1(C)CC[C@H](O)C(C)(C)[C@@H]1CC3 [lanosterol]
  higher affinity for the endogenous substrate than the wild-type protein: 2.4 fold
